Measured values as given in the NIST ThermoML archive (doi:10.1016/j.jct.2015.02.020).
Numbers after ± are expanded uncertainties.

Assays:
[1] = refractive index (Na D-line) (dimensionless); xn = mol fraction of the nth substance listed; conditions: 101.3 kPa, Liquid, Standard Abbe refractometry
[2] = xn = mol fraction of the nth substance listed; conditions: 101.3 kPa, Liquid; for viscosity: Falling or rolling sphere viscometry; for speed of sound: Sing-around technique in a fixed-path interferometer; for mass density: Vibrating tube method

CC[n+]1cccc(C)c1.O=S(=O)([N-]S(=O)(=O)C(F)(F)F)C(F)(F)F + O
Conditions	mass density, [2] [kg/m3]	refractive index, [1]	speed of sound, [2] [m/s]	viscosity, [2] [mPa·s]
298.15 K, x2 = 0.131	1481.91 ± 0.77	1.44197 ± 0.00037	1262.7 ± 1.5	29.75 ± 0.83
298.15 K, x2 = 0.189	1479.39 ± 0.89	1.44144 ± 0.00039	1264.6 ± 1.5	27.2 ± 0.79
298.15 K, x2 = 0.266	1473.92 ± 0.98	1.44013 ± 0.0004	1268.3 ± 1.5	23.89 ± 0.73
303.15 K, x2 = 0.131	1477.02 ± 0.77	1.44057 ± 0.00037	1251.8 ± 1.5	24.96 ± 0.73
303.15 K, x2 = 0.189	1474.49 ± 0.9	1.44005 ± 0.00038	1253.4 ± 1.5	22.92 ± 0.67
303.15 K, x2 = 0.266	1468.97 ± 0.98	1.43917 ± 0.00038	1257.1 ± 1.5	20.03 ± 0.59
308.15 K, x2 = 0.131	1472.16 ± 0.77	1.4391 ± 0.00038	1240.8 ± 1.5	21.21 ± 0.61
308.15 K, x2 = 0.189	1469.6 ± 0.9	1.43852 ± 0.00038	1242.3 ± 1.5	19.52 ± 0.56
308.15 K, x2 = 0.266	1464.04 ± 0.99	1.43769 ± 0.00037	1246 ± 1.5	17.09 ± 0.51
313.15 K, x2 = 0.131	1467.31 ± 0.77	1.43766 ± 0.00037	1229.9 ± 1.5	18.24 ± 0.51
313.15 K, x2 = 0.189	1464.73 ± 0.9	1.43716 ± 0.00038	1231.4 ± 1.5	16.84 ± 0.49
313.15 K, x2 = 0.266	1459.12 ± 0.99	1.43624 ± 0.00037	1234.9 ± 1.5	14.62 ± 0.45
318.15 K, x2 = 0.131	1462.48 ± 0.77	1.43623 ± 0.00037	1219.1 ± 1.5	15.79 ± 0.44
318.15 K, x2 = 0.189	1459.88 ± 0.91	1.43573 ± 0.00036	1220.5 ± 1.5	14.61 ± 0.42
318.15 K, x2 = 0.266	1454.22 ± 1	1.43533 ± 0.00036	1224 ± 1.5	12.74 ± 0.39
323.15 K, x2 = 0.131	1457.66 ± 0.77	1.4348 ± 0.00038	1208.4 ± 1.5	13.84 ± 0.38
323.15 K, x2 = 0.189	1455.04 ± 0.91	1.43425 ± 0.00036	1209.5 ± 1.5	12.88 ± 0.37
323.15 K, x2 = 0.266	1449.34 ± 1	1.43385 ± 0.00035	1213.2 ± 1.5	11.23 ± 0.34
328.15 K, x2 = 0.131	1452.87 ± 0.77	1.43338 ± 0.00038	1197.8 ± 1.5	12.27 ± 0.33
328.15 K, x2 = 0.189	1450.22 ± 0.91	1.43281 ± 0.00036	1199.2 ± 1.5	11.44 ± 0.32
328.15 K, x2 = 0.266	1444.47 ± 1	1.43261 ± 0.00035	1202.4 ± 1.5	9.965 ± 0.31
333.15 K, x2 = 0.131	1448.09 ± 0.77	1.43195 ± 0.00037	1187.3 ± 1.5	10.95 ± 0.29
333.15 K, x2 = 0.189	1445.42 ± 0.92	1.43142 ± 0.00036	1188.6 ± 1.5	10.21 ± 0.29
333.15 K, x2 = 0.266	1439.61 ± 1	1.43119 ± 0.00035	1191.8 ± 1.5	8.892 ± 0.28
338.15 K, x2 = 0.131	1443.32 ± 0.77	1.43052 ± 0.00038	1176.9 ± 1.5	9.815 ± 0.26
338.15 K, x2 = 0.189	1440.63 ± 0.92	1.42999 ± 0.00036	1178.2 ± 1.5	9.153 ± 0.26
338.15 K, x2 = 0.266	1434.78 ± 1	1.42974 ± 0.00035	1181.2 ± 1.5	7.977 ± 0.25
343.15 K, x2 = 0.131	1438.57 ± 0.77	1.42911 ± 0.00038	1166.6 ± 1.5	8.833 ± 0.23
343.15 K, x2 = 0.189	1435.85 ± 0.92	1.42853 ± 0.00036	1167.8 ± 1.5	8.239 ± 0.23
343.15 K, x2 = 0.266	1429.95 ± 1	1.42835 ± 0.00035	1170.8 ± 1.5	7.182 ± 0.23
